Data reported in patent publication US9507284B2, “Electrophotographic photoreceptor, electrophotographic photoreceptor cartridge, image-forming apparatus, and triarylamine compound” (MITSUBISHI CHEMICAL CORPORATION, priority 2012, dated 2016).

Assay: Storage Stability Test (coating fluid)
Type: physicochemical
Parameters: key: Excellent: Turbidity or the like derived from crystal precipitation is not present even after storage of coating fluid; Bad: Turbidity or the like derived from precipitation of the charge transport substance is present after storage of coating fluid
Conditions: charge transport layer coating fluid (60 parts substance, 100 parts polycarbonate PD, tetrahydrofuran/toluene 8/2) stored at −5 to 0° C. for 2 months, checked for turbidity
Protocol: As the binder resin, the polycarbonate resin (Mv=39,200) having a repeating unit represented by the structural formula (PD) was used. Then, 60 parts by mass of the charge transport substance, 100 parts by mass of the binder resin, 2 parts by mass of an antioxidant having a structure represented by the following formula (AOX2), and 0.05 parts by mass of a silicone oil as a leveling agent were dissolved in 540 parts by mass of a mixed solvent of tetrahydrofuran/toluene (mass ratio: 8/2) to prepare a charge transport layer coating fluid for coating fluid storage stability test.
The coating fluid obtained was placed in a glass sealed bottle and stored under the condition of −5 to 0° C. for 2 months. Then, it was checked whether turbidity or the like occurred or not in the coating fluid after storage, thereby evaluating the coating fluid storage stability.
The charge transport substances used in evaluation, the results of stability evaluation, and the criteria for the coating fluid stability are shown in the following Table-6.

Storage stability | SMILES
Excellent | CCOc1ccc(N(c2ccc(/C=C/c3ccc(N(c4ccc(C)cc4)c4ccc(C)cc4)cc3)cc2)c2ccc(/C=C/c3ccc(N(c4ccc(C)cc4)c4ccc(C)cc4)cc3)cc2)cc1 [CTM1]
Bad | Cc1ccc(N(c2ccc(C)cc2)c2ccc(/C=C/c3ccc(N(c4ccc(C)cc4)c4ccc(/C=C/c5ccc(N(c6ccc(C)cc6)c6ccc(C)cc6)cc5)cc4)cc3)cc2)cc1 [RCTM1]
